# Reference: ChEMBL document CHEMBL3407349, “The discovery of Polo-like kinase 4 inhibitors: identification of (1R,2S).2-(3-((E).4-(((cis).2,6-dimethylmorpholino)methyl)styryl). 1H.indazol-6-yl)-5'-methoxyspiro[cyclopropane-1,3'-indolin]-2'-one (CFI-400945) as a potent, orally active antitumor agent” (J Med Chem, 2015)
# Tests used:
# [1] = AUC in athymic CD1 nude mouse at 25 mg/kg, po by LC/MS/MS analysis; assay type: ADME, organism-based; design: dose 25 mg/kg, route oral; conditions: plasma
# [2] = AUC(infinity) in Sprague-Dawley rat at 1 mg/kg, iv; assay type: ADME, organism-based; design: time infinity, dose 1 mg/kg, route intravenous; conditions: plasma
# [3] = AUC(infinity) in beagle dog at 1 mg/kg, iv; assay type: ADME, organism-based, Canis lupus familiaris; design: time infinity, dose 1 mg/kg, route intravenous; conditions: plasma
# [4] = Antitumor activity against human HCT116 cells xenografted in athymic CD-1 nude mouse assessed as tumor growth inhibition at MTD, po qd administered 1-on/3-off schedule up to day 21; assay type: functional, HCT-116
# SW-620 = test: Growth inhibition of human SW620 cells after 5 days by SRB assay; assay type: functional; conditions: SW-620, 120 h
# [5] = Growth inhibition of human COLO205 cells after 5 days by SRB assay; assay type: functional; conditions: COLO 205, 120 h
# HCC1954 = test: Growth inhibition of human HCC1954 cells after 5 days by SRB assay; assay type: functional; conditions: Homo sapiens, HCC1954, 120 h
# A549 [6] = test: Antitumor activity against human A549 cells xenografted in CB-17 SCID mouse assessed as tumor growth inhibition at 3 mg/kg, po qd administered for 21 days; assay type: functional; conditions: A549, 504 h, read-out: TGI
# [7] = Growth inhibition of human BT20 cells after 5 days by SRB assay; assay type: functional; conditions: BT-20, 120 h
# Cytochrome P450 1A2 = biological target: T1, Cytochrome P450 1A2 (Homo sapiens, UniProt P05177); test: Inhibition of CYP1A2 (unknown origin) by fluorescence assay; assay type: ADME
# T1 sequence (P05177 whole entry): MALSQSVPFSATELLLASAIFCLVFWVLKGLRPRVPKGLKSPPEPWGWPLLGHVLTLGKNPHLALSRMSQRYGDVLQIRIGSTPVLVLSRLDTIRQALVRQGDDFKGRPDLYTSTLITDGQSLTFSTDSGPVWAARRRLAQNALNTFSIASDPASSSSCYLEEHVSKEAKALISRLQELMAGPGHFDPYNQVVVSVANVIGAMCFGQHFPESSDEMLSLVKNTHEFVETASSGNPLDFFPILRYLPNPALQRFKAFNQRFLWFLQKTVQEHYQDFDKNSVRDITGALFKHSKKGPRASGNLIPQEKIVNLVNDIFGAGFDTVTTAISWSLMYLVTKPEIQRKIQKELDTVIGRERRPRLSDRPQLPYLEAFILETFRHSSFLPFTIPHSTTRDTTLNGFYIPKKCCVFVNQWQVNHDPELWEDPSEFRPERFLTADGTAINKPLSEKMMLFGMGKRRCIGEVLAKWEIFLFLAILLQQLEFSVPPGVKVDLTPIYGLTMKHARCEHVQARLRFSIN
# [8] = Half life in beagle dog at 1 mg/kg, iv; assay type: ADME, organism-based, Canis lupus familiaris; design: dose 1 mg/kg, route intravenous; conditions: in vivo
# A549 [9] = test: Antitumor activity against human A549 cells xenografted in CB-17 SCID mouse assessed as tumor growth inhibition at 9.4 mg/kg, po qd administered for 21 days; assay type: functional; conditions: A549, 504 h, read-out: TGI
# [10] = AUC(infinity) in beagle dog at 5 mg/kg, po; assay type: ADME, organism-based, Canis lupus familiaris; design: time infinity, dose 5 mg/kg, route oral; conditions: plasma
# [11] = Antitumor activity against human SW620 cells xenografted in CB-17 SCID mouse assessed as tumor growth inhibition at 3 mg/kg, po qd administered for 21 days; assay type: functional; conditions: SW-620, 504 h, read-out: TGI
# [12] = Antitumor activity against human SW620 cells xenografted in CB-17 SCID mouse assessed as tumor growth inhibition at 9.4 mg/kg, po qd administered for 21 days; assay type: functional; conditions: SW-620, 504 h, read-out: TGI
# [13] = Growth inhibition of human HCT116 cells after 5 days by SRB assay; assay type: functional; conditions: HCT-116, 120 h
# MDA-MB-231 = test: Growth inhibition of human MDA-MB-231 cells after 5 days by SRB assay; assay type: functional; conditions: Homo sapiens, MDA-MB-231, 120 h
# [14] = Half life in Sprague-Dawley rat at 1 mg/kg, iv; assay type: ADME, organism-based; design: dose 1 mg/kg, route intravenous; conditions: in vivo
# [15] = Cmax in athymic CD1 nude mouse at 25 mg/kg, po by LC/MS/MS analysis; assay type: ADME, organism-based; design: dose 25 mg/kg, route oral; conditions: in vivo
# [16] = Oral bioavailability in beagle dog at 5 mg/kg; assay type: ADME, organism-based, Canis lupus familiaris; conditions: in vivo
# [17] = Growth inhibition of human SKBR3 cells after 5 days by SRB assay; assay type: functional; conditions: SK-BR-3, 120 h
# Cytochrome P450 2D6 = Cytochrome P450 2D6 (Homo sapiens, UniProt P10635); test: Inhibition of CYP2D6 (unknown origin) by fluorescence assay; assay type: ADME
# [18] = Growth inhibition of human OVCAR3 cells after 5 days by SRB assay; assay type: functional; conditions: OVCAR-3, 120 h
# MDA-MB-468 [19] = test: Antitumor activity against human MDA-MB-468 cells xenografted in CB-17 SCID mouse assessed as tumor growth inhibition at 3 mg/kg, po qd administered for 21 days; assay type: functional; conditions: MDA-MB-468, 504 h, read-out: TGI
# MDA-MB-468 [20] = test: Growth inhibition of human MDA-MB-468 cells after 5 days by SRB assay; assay type: functional; conditions: Homo sapiens, MDA-MB-468, 120 h
# [21] = Oral bioavailability in Sprague-Dawley rat at 5 mg/kg; assay type: ADME, organism-based; conditions: in vivo
# A549 [22] = test: Growth inhibition of human A549 cells after 5 days by SRB assay; assay type: functional; conditions: A549, 120 h
# [23] = Growth inhibition of human CAL51 cells after 5 days by SRB assay; assay type: functional; conditions: CAL-51, 120 h
# [24] = Toxicity in po dosed athymic CD-1 nude mouse xenografted with human HCT116 cells administered qd 1-on/3-off schedule up to day 21; assay type: organism-based, HCT-116; conditions: CD-1 athymic nude, in vivo
# MDA-MB-468 [25] = test: Antitumor activity against human MDA-MB-468 cells xenografted in CB-17 SCID mouse assessed as tumor growth inhibition at 9.4 mg/kg, po qd administered for 21 days; assay type: functional; conditions: MDA-MB-468, 504 h, read-out: TGI
# Mus musculus [26] = test: Toxicity in CB-17 SCID mouse xenografted with human MDA-MB-468 cells assessed as mortality at 3 to 9.4 mg/kg, po qd administered for 21 days; assay type: organism-based; design: dose 3-9.4 mg/kg, route oral; conditions: in vivo, 504 h
# MCF7 = test: Growth inhibition of human MCF7 cells after 5 days by SRB assay; assay type: functional; conditions: Homo sapiens, MCF7, 120 h
# Mus musculus [27] = test: Toxicity in CB-17 SCID mouse xenografted with human MDA-MB-468 cells assessed as loss in body weight at 3 to 9.4 mg/kg, po qd administered for 21 days relative to control; assay type: organism-based; design: dose 3-9.4 mg/kg, route oral; conditions: in vivo, 504 h
# [28] = Growth inhibition of human HMEC cells after 5 days by SRB assay; assay type: cell-based; conditions: HMEC cells
# [29] = AUC(infinity) in Sprague-Dawley rat at 5 mg/kg, po; assay type: ADME, organism-based; design: dose 5 mg/kg, route oral, time infinity; conditions: plasma
# Canis familiaris = test: Clearance in beagle dog at 1 mg/kg, iv; assay type: ADME, organism-based, Canis lupus familiaris; design: dose 1 mg/kg, route intravenous; conditions: in vivo
# Cytochrome P450 2C19 = Cytochrome P450 2C19 (Homo sapiens, UniProt P33261); test: Inhibition of CYP2C19 (unknown origin) by fluorescence assay
# [30] = Half life in dog liver microsomes; conditions: liver microsomes
# [31] = Half life in mouse liver microsomes; conditions: liver microsomes
# Angiopoietin-1 receptor [32] = biological target: T2, Angiopoietin-1 receptor (Homo sapiens, UniProt Q02763); test: Inhibition of TIE2 (unknown origin) by FRET analysis
# Angiopoietin-1 receptor [33] = biological target: T2, Angiopoietin-1 receptor; test: Inhibition of TIE2 (unknown origin) by cell-based assay
# [34] = Half life in human liver microsomes; conditions: liver microsomes
# Rattus norvegicus = test: Clearance in Sprague-Dawley rat at 1 mg/kg, iv; assay type: ADME, organism-based; design: dose 1 mg/kg, route intravenous; conditions: in vivo
# [35] = Half life in rat liver microsomes; conditions: liver microsomes
# [36] = Antitumor activity against human HCT116 cells xenografted in athymic CD-1 nude mouse assessed as tumor growth inhibition at MTD, po qd administered 1-on/3-off schedule up to day 21 measured on day 35; assay type: functional, HCT-116
# Cytochrome P450 2C9 = Cytochrome P450 2C9 (Homo sapiens, UniProt P11712); test: Inhibition of CYP2C9 (unknown origin) by fluorescence assay
# Cytochrome P450 2C9, sequence (P11712 whole entry): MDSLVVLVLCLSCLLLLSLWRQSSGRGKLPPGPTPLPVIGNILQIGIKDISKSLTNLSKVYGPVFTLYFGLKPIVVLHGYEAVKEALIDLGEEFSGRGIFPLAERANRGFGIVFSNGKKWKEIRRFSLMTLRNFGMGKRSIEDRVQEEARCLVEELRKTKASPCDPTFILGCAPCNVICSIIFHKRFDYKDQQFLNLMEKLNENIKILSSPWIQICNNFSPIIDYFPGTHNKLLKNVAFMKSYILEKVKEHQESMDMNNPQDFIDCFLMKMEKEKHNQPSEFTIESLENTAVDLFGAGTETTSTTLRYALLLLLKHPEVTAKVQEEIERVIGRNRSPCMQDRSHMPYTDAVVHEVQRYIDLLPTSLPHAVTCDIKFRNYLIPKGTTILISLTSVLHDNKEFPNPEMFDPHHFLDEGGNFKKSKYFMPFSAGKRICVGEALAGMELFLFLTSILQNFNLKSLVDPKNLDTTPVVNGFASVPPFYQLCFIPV
# Cytochrome P450 2D6, sequence (P10635 whole entry): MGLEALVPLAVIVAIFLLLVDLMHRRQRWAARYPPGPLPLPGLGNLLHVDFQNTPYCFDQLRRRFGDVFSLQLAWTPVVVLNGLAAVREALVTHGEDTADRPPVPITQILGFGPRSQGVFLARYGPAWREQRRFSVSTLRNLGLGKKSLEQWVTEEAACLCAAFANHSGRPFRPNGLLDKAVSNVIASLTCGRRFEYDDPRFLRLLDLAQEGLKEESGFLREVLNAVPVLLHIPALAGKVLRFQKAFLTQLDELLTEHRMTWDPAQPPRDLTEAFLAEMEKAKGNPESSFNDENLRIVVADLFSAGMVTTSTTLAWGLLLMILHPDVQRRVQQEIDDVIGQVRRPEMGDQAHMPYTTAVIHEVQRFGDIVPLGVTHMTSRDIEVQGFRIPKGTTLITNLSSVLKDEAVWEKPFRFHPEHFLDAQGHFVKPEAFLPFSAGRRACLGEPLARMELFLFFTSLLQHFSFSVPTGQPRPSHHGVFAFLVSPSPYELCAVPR
# T2 sequence (Q02763 whole entry): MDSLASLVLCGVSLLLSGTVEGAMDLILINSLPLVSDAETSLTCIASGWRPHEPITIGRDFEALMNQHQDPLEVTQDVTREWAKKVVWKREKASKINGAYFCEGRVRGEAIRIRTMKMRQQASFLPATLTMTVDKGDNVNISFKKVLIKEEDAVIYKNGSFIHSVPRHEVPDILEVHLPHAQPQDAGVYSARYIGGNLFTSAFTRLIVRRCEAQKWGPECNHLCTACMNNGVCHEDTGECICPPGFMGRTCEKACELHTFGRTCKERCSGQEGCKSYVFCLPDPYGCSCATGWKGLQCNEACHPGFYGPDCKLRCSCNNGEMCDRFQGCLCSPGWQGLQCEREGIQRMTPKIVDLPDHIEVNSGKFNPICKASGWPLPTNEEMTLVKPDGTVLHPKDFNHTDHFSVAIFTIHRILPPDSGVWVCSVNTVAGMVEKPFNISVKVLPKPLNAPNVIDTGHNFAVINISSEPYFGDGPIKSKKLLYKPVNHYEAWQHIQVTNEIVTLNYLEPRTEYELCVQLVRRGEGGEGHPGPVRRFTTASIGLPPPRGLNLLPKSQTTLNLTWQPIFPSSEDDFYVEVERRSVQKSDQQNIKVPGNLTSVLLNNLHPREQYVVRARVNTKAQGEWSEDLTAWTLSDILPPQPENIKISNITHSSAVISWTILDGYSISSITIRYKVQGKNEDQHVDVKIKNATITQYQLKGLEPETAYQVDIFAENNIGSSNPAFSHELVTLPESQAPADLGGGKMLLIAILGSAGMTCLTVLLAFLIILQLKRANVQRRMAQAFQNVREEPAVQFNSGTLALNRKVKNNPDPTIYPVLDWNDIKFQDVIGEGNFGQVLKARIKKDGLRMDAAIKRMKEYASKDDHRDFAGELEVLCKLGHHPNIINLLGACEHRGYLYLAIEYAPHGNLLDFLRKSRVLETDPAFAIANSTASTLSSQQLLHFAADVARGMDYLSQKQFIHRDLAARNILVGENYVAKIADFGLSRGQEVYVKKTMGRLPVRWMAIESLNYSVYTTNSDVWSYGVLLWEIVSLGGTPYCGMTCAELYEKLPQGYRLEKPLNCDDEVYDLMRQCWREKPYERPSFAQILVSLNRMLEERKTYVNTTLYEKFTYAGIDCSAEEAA
# Cytochrome P450 2C19, sequence (P33261 whole entry): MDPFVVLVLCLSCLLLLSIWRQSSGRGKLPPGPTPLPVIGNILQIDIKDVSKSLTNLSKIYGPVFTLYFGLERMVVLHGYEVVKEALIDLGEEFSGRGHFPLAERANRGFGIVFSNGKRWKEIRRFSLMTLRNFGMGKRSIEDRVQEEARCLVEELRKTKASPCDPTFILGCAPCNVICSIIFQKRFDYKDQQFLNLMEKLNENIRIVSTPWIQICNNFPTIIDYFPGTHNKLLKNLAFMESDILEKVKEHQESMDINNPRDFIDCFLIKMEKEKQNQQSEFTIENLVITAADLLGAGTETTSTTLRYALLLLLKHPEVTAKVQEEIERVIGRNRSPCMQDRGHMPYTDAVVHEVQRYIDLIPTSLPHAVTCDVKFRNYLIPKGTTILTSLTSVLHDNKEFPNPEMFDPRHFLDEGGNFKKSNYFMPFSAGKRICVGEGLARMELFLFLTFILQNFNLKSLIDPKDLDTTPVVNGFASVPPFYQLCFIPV
compound,measurement,setting,value
C[C@@H]1CN(Cc2ccc(/C=C/c3n[nH]c4cc([C@@H]5C[C@@]56C(=O)Nc5ccccc56)ccc34)cc2)C[C@H](C)O1,AUC,[1],10000 ng·h/mL
same,AUC(0-inf),[2],1230 ng·h/mL
same,AUC(0-inf),[3],2050 ng·h/mL
same,TGI,[4],78%
same,GI50,SW-620,350 nM
same,GI50,[5],57 nM
same,GI50,HCC1954,8 nM
same,inhibition in vivo at 3 mg/kg,A549 [6],44%
same,GI50,[7],90 nM
same,inhibition (INH),Cytochrome P450 1A2,Not Active
same,half-life,[8],4.5 h
same,inhibition in vivo at 9.4 mg/kg,A549 [9],79%
same,AUC(0-inf),[10],4990 ng·h/mL
same,inhibition in vivo at 3 mg/kg,[11],57%
same,inhibition in vivo at 9.4 mg/kg,[12],80%
same,GI50,[13],8 nM
same,GI50,MDA-MB-231,6500 nM
same,half-life,[14],3.9 h
same,Cmax,[15],3700 ng/mL
same,bioavailability,[16],49%
same,GI50,[17],7200 nM
same,inhibition (INH),Cytochrome P450 2D6,Not Active
same,GI50,[18],15 nM
same,inhibition in vivo at 3 mg/kg,MDA-MB-468 [19],45%
same,GI50,MDA-MB-468 [20],10 nM
same,bioavailability,[21],46%
same,GI50,A549 [22],9 nM
same,GI50,[23],91 nM
same,MTD at 21 days,[24],36 mg/kg
same,inhibition in vivo at 9.4 mg/kg,MDA-MB-468 [25],90%
same,Activity,Mus musculus [26],Non-toxic
same,GI50,MCF7,17 nM
same,Activity,Mus musculus [27],> 20%
same,GI50 at 120 h,[28],8400 nM
same,AUC(0-inf),[29],2810 ng·h/mL
COc1ccc2c(c1)[C@]1(C[C@H]1c1ccc3c(/C=C/c4ccc(CN5C[C@@H](C)O[C@@H](C)C5)cc4)n[nH]c3c1)C(=O)N2 [OCIFISERTIB],AUC,[1],9800 ng·h/mL
same,AUC(0-inf),[2],534 ng·h/mL
same,AUC(0-inf),[3],1050 ng·h/mL
same,TGI,[4],98%
same,GI50,SW-620,380 nM
same,clearance,Canis familiaris,16 mL/min/kg
same,GI50,[5],17 nM
same,GI50,HCC1954,5 nM
same,inhibition in vivo at 3 mg/kg,A549 [6],32%
same,IC50,Cytochrome P450 2C19,1400 nM
same,GI50,[7],58 nM
same,inhibition (INH),Cytochrome P450 1A2,Not Active
same,half-life,[8],2.1 h
same,inhibition in vivo at 9.4 mg/kg,A549 [9],70%
same,half-life,[30],0.717 h
same,AUC(0-inf),[10],3460 ng·h/mL
same,half-life,[31],0.4 h
same,inhibition in vivo at 3 mg/kg,[11],7%
same,inhibition in vivo at 9.4 mg/kg,[12],86%
same,GI50,[13],4 nM
same,GI50,MDA-MB-231,8600 nM
same,half-life,[14],2 h
same,IC50,Angiopoietin-1 receptor [32],22 nM
same,Cmax,[15],2200 ng/mL
same,bioavailability,[16],66%
same,EC50,Angiopoietin-1 receptor [33],117 nM
same,GI50,[17],5300 nM
same,inhibition (INH),Cytochrome P450 2D6,Not Active
same,GI50,[18],18 nM
same,half-life,[34],> 1 h
same,inhibition in vivo at 3 mg/kg,MDA-MB-468 [19],57%
same,clearance,Rattus norvegicus,31.7 mL/min/kg
same,GI50,MDA-MB-468 [20],6 nM
same,bioavailability,[21],21%
same,GI50,A549 [22],5 nM
same,half-life,[35],0.883 h
same,GI50,[23],260 nM
same,MTD at 21 days,[24],39 mg/kg
same,inhibition in vivo at 9.4 mg/kg,MDA-MB-468 [25],77%
same,TGI,[36],93%
same,Activity,Mus musculus [26],Non-toxic
same,GI50,MCF7,8 nM
same,IC50,Cytochrome P450 2C9,940 nM
same,Activity,Mus musculus [27],> 20%
same,GI50 at 120 h,[28],9000 nM
same,AUC(0-inf),[29],767 ng·h/mL
